Where a SMILES comes first, the peptide text is derived from it.

The assay deals with T1, Interleukin-23 receptor (Homo sapiens, UniProt Q5VWK5).
T1 sequence (Q5VWK5 whole entry): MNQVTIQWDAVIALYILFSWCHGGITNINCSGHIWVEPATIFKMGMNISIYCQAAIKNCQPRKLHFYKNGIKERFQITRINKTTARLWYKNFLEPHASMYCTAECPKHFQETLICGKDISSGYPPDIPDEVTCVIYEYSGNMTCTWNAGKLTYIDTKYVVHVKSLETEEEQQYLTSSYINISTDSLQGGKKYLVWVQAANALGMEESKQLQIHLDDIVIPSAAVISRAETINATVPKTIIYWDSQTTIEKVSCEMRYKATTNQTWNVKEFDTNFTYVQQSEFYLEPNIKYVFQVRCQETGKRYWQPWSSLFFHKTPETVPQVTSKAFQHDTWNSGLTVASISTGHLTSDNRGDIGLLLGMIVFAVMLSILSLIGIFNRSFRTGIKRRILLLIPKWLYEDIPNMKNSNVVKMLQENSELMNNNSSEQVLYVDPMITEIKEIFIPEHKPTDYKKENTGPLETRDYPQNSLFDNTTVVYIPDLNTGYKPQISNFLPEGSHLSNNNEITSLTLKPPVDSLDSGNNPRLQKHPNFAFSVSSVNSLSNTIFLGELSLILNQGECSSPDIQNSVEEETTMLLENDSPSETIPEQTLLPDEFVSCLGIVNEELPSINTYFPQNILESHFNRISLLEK
As to the kind of experiment: Inhibition of interleukin-23 binding to human interleukin-23 receptor incubated for 2 hrs by competitive binding ELISA.
Regarding `C[C@H](NC(=O)[C@@H](N)CS)C(=O)N[C@@H](CC(=O)O)C(=O)N[C@@H](Cc1c[nH]c2ccccc12)C(=O)N(C)CC(=O)N[C@@H](CS)C(=O)N[C@@H](Cc1ccc(O)cc1)C(=O)N[C@@H](Cc1cccc2ccccc12)C(=O)N[C@@H](Cc1cnc[nH]1)C(=O)N[C@H](C(=O)N[C@@H](Cc1ccccc1)C(=O)O)[C@@H](C)O`, the IC50 is > 1000 nM.
On to `CC(=O)N[C@@H](C)C(=O)N[C@H](C(=O)N[C@@H](CC(=O)O)C(=O)N[C@@H](Cc1c[nH]c2ccccc12)C(=O)N[C@H](C(=O)N[C@@H](CS)C(=O)N[C@@H](Cc1ccc(O)cc1)C(=O)N[C@@H](Cc1c[nH]c2ccccc12)C(=O)N[C@@H](CCCNC(=N)N)C(=O)N[C@@H](CCCCN)C(=O)N[C@@H](Cc1ccccc1)C(=O)NCC(=O)NCCOCC(=O)N[C@H](CCCCN)C(N)=O)C(C)C)C(C)(C)S`, for which the IC50 is 100 to 1000 nM.
As for `CC(=O)N[C@@H](CS)C(=O)N[C@@H](C)C(=O)N[C@@H](CC(=O)O)C(=O)N[C@@H](Cc1c[nH]c2ccccc12)C(=O)N[C@H](C(=O)N[C@@H](CS)C(=O)N[C@@H](Cc1ccc(O)cc1)C(=O)N[C@@H](Cc1cccc2ccccc12)C(=O)N[C@@H](Cc1ccccc1)C(=O)N[C@H](C(=O)N[C@@H](Cc1ccccc1)C(=O)NCC(N)=O)[C@@H](C)O)C(C)C`, the IC50 was > 1000 nM.
With `CC(=O)N[C@H](CCCCNC(=O)COCC(=O)NCCCC[C@@H](NC(C)=O)C(=O)N[C@@H](CS)C(=O)N[C@@H](C)C(=O)N[C@@H](CC(=O)O)C(=O)N[C@@H](Cc1c[nH]c2ccccc12)C(=O)N[C@H](C(=O)N[C@@H](CS)C(=O)N[C@@H](Cc1ccc(O)cc1)C(=O)N[C@@H](Cc1c[nH]c2ccccc12)C(=O)N[C@@H](Cc1cnc[nH]1)C(=O)N[C@H](C(=O)N[C@@H](Cc1ccccc1)C(=O)NCC(=O)O)[C@@H](C)O)C(C)C)C(=O)N[C@@H](CS)C(=O)N[C@@H](C)C(=O)N[C@@H](CC(=O)O)C(=O)N[C@@H](Cc1c[nH]c2ccccc12)C(=O)N[C@H](C(=O)N[C@@H](CS)C(=O)N[C@@H](Cc1ccc(O)cc1)C(=O)N[C@@H](Cc1c[nH]c2ccccc12)C(=O)N[C@@H](Cc1cnc[nH]1)C(=O)N[C@H](C(=O)N[C@@H](Cc1ccccc1)C(=O)NCC(=O)O)[C@@H](C)O)C(C)C` the figure was > 10000 nM; with `CC(C)[C@H](NC(=O)[C@H](Cc1c[nH]c2ccccc12)NC(=O)[C@H](CC(=O)O)NC(=O)[C@H](C)NC(=O)[C@@H](N)C(C)(C)S)C(=O)N[C@H](C(=O)N[C@@H](Cc1ccc(O)cc1)C(=O)N[C@@H](Cc1c[nH]c2ccccc12)C(=O)N[C@@H](Cc1cnc[nH]1)C(=O)N[C@H](C(=O)N[C@@H](Cc1ccccc1)C(=O)NCC(N)=O)[C@@H](C)O)C(C)(C)S`, > 6000 nM.
On to `CC(=O)N[C@@H](CS)C(=O)N[C@@H](CCCNC(=N)N)C(=O)N[C@H](C(=O)N[C@@H](Cc1c[nH]c2ccccc12)C(=O)N[C@@H](CCC(N)=O)C(=O)N[C@@H](CS)C(=O)N[C@@H](Cc1ccc(O)cc1)C(=O)N[C@@H](Cc1c[nH]c2ccccc12)C(=O)N[C@@H](CCCNC(=N)N)C(=O)N[C@@H](CCCCN)C(=O)N[C@@H](Cc1ccccc1)C(=O)NCC(=O)NCCOCC(=O)N[C@H](CCCCN)C(N)=O)[C@@H](C)O`, for which the concentration for half-maximal inhibition (IC50) was < 500 nM.
Regarding `CC(C)[C@H](NC(=O)[C@H](Cc1c[nH]c2ccccc12)NC(=O)[C@H](CC(=O)O)NC(=O)[C@H](C)NC(=O)[C@@H](N)CS)C(=O)N[C@@H](CS)C(=O)N[C@@H](Cc1ccc(O)cc1)C(=O)N[C@@H](Cc1c[nH]c2ccccc12)C(N)=O`, the IC50 is > 1000 nM.
For `CC(=O)N[C@@H](CS)C(=O)N[C@@H](C)C(=O)N[C@@H](CC(=O)O)C(=O)N[C@@H](Cc1c[nH]c2ccccc12)C(=O)N[C@H](C(=O)N[C@@H](CS)C(=O)N[C@@H](Cc1ccc(O)cc1)C(=O)N[C@@H](Cc1c[nH]c2ccccc12)C(N)=O)C(C)C`, the IC50 was > 30000 nM.
With `CC(=O)N[C@@H](CS)C(=O)N[C@@H](CCC(N)=O)C(=O)N[C@H](C(=O)N[C@@H](Cc1c[nH]c2ccccc12)C(=O)N[C@@H](CCC(N)=O)C(=O)N[C@@H](CS)C(N)=O)[C@@H](C)O` (Ac-CQTWQC-NH2) the figure was > 30000 nM; with `CC(=O)N[C@@H](CS)C(=O)N[C@@H](CCC(N)=O)C(=O)N[C@H](C(=O)N[C@@H](Cc1c[nH]c2ccccc12)C(=O)N[C@@H](CCC(N)=O)C(=O)N[C@@H](CS)C(=O)N[C@@H](Cc1ccc(O)cc1)C(=O)N[C@@H](Cc1c[nH]c2ccccc12)C(=O)N[C@@H](CCCNC(=N)N)C(=O)N[C@@H](CCCNC(=N)N)CC(=O)N[C@H](C(=O)N[C@@H](CC(N)=O)C(=O)NCC(=O)NCCOCC(=O)N[C@H](CCCCN)C(N)=O)C(C)C)[C@@H](C)O`, 922 nM; with `CC(=O)N[C@@H](CS)C(=O)N[C@@H](CCC(N)=O)C(=O)N[C@H](C(=O)N[C@@H](Cc1c[nH]c2ccccc12)C(=O)N[C@@H](CCC(N)=O)C(=O)N[C@@H](CS)C(=O)N1Cc2ccccc2C[C@H]1C(=O)N[C@@H](Cc1c[nH]c2ccccc12)C(=O)N[C@@H](CCC(C)C)C(=O)N[C@@H](CCC(=O)O)C(=O)N[C@@H](CC(N)=O)C(=O)NCC(N)=O)[C@@H](C)O`, > 30000 nM.
With `CC(=O)N[C@@H](CS)C(=O)N[C@H](C(=O)N[C@@H](CC(=O)O)C(=O)N[C@@H](Cc1c[nH]c2ccccc12)C(=O)N[C@H](C(=O)N[C@@H](CS)C(=O)N[C@@H](Cc1ccc(O)cc1)C(=O)N[C@@H](Cc1c[nH]c2ccccc12)C(=O)N[C@@H](Cc1cnc[nH]1)C(=O)N[C@H](C(=O)N[C@@H](Cc1ccccc1)C(=O)NCC(N)=O)[C@@H](C)O)C(C)C)[C@@H](C)O` the figure was < 500 nM.
Under `CCCCCCCC(=O)N[C@H](C(=O)N[C@@H](CCC(N)=O)C(=O)N[C@H](C(=O)N[C@@H](Cc1c[nH]c2ccccc12)C(=O)N[C@@H](CCC(N)=O)C(=O)N[C@H](C(=O)N[C@@H](Cc1ccc(OC)cc1)C(=O)N[C@@H](Cc1ccc2ccccc2c1)C(=O)N[C@@](C)(CCCCN)C(=O)N[C@@H](CCCCNC(C)=O)C(=O)N[C@@H](CC(N)=O)C(=O)NCC(N)=O)C(C)(C)S)[C@@H](C)O)C(C)(C)S` stands 100 to 1000 nM; under `CC(=O)NCC(=O)NCC(=O)NCC(=O)N[C@@H](CCC(=O)O)C(=O)N[C@@H](CS)C(=O)N[C@@H](CCC(=O)O)C(=O)N[C@@H](CC(N)=O)C(=O)N[C@@H](Cc1c[nH]c2ccccc12)C(=O)N[C@@H](CCC(=O)O)C(=O)N[C@@H](CS)C(=O)N[C@@H](Cc1ccc(O)cc1)C(=O)N[C@@H](Cc1c[nH]c2ccccc12)C(=O)N[C@@H](Cc1cnc[nH]1)C(=O)N[C@H](C(=O)N[C@@H](Cc1ccccc1)C(=O)NCC(N)=O)[C@@H](C)O` (Ac-GGGECENWECYWHTFG-NH2), 500 to 1000 nM; under `CC(=O)N[C@@H](CS)C(=O)N[C@@H](C)C(=O)N[C@@H](CC(=O)O)C(=O)N[C@@H](Cc1c[nH]c2ccccc12)C(=O)N[C@H](C(=O)N[C@@H](CS)C(=O)N[C@@H](Cc1ccc(O)cc1)C(=O)N[C@H](CC(=O)N[C@@H](CCCN)C(=O)N[C@@H](CN)C(=O)N[C@@H](Cc1ccccc1)C(=O)NCC(=O)NCCOCC(=O)N[C@H](CCCCN)C(N)=O)Cc1c[nH]c2ccccc12)C(C)C`, 6000 nM.
Consider `C[C@@H](O)[C@H](NC(=O)[C@@H](N)CS)C(=O)N[C@@H](CC(=O)O)C(=O)N[C@@H](Cc1c[nH]c2ccccc12)C(=O)N[C@@H](CCCCN)C(=O)N[C@@H](CS)C(=O)N[C@@H](Cc1ccc(O)cc1)C(=O)N[C@@H](Cc1c[nH]c2ccccc12)C(=O)N[C@@H](Cc1cnc[nH]1)C(=O)N[C@@H](CCC(=O)O)C(=O)N[C@@H](Cc1ccccc1)C(=O)NCC(N)=O` (H-CTDWKCYWHEFG-NH2), for which the 50% inhibitory concentration (IC50) fell in the range of 500 to 1000 nM.
`CC(=O)N[C@@H](CS)C(=O)N[C@@H](CCCCN)C(=O)N[C@H](C(=O)N[C@@H](Cc1c[nH]c2ccccc12)C(=O)N[C@@H](CCC(N)=O)C(=O)N[C@@H](CS)C(=O)N[C@@H](Cc1ccc(O)cc1)C(=O)N[C@@H](Cc1c[nH]c2ccccc12)C(=O)N[C@@H](CCCNC(=N)N)C(=O)N[C@H](C(=O)N[C@@H](Cc1ccccc1)C(=O)NCC(=O)NCCOCC(=O)N[C@H](CCCCN)C(N)=O)C(C)C)[C@@H](C)O` came in with an IC50 of 40 nM.
Under `CC(=O)N[C@@H](CS)C(=O)N[C@@H](CCC(N)=O)C(=O)N[C@H](C(=O)N[C@@H](Cc1c[nH]c2ccccc12)C(=O)N[C@@H](CCC(N)=O)C(=O)N[C@@H](CS)C(=O)N[C@@H](Cc1ccc(O)cc1)C(=O)N[C@H](CC(=O)N[C@@H](CCCNC(=N)N)C(=O)N[C@H](C(=O)N[C@@H](CC(N)=O)C(=O)NCC(=O)NCCOCC(=O)N[C@H](CCCCN)C(N)=O)C(C)C)Cc1ccccc1)[C@@H](C)O` stands > 30000 nM; under `CC(=O)N[C@@H](CS)C(=O)N[C@@H](CCCNC(=N)N)C(=O)N[C@@H](CC(=O)O)C(=O)N[C@@H](Cc1c[nH]c2ccccc12)C(=O)N[C@H](C(=O)N[C@@H](CS)C(=O)N[C@@H](Cc1ccc(O)cc1)C(=O)N[C@@H](Cc1c[nH]c2ccccc12)C(=O)N[C@@H](Cc1cnc[nH]1)C(=O)N[C@H](C(=O)N[C@@H](Cc1ccccc1)C(=O)NCC(N)=O)[C@@H](C)O)C(C)C`, 500 to 1000 nM.
`CC(C)[C@H](NC(=O)[C@H](Cc1c[nH]c2ccccc12)NC(=O)[C@H](CC(=O)O)NC(=O)[C@H](C)NC(=O)[C@@H](N)CS)C(=O)N[C@@H](CS)C(=O)N[C@@H](Cc1ccc(O)cc1)C(=O)N[C@H](CC(=O)N[C@@H](Cc1cnc[nH]1)C(=O)N[C@H](C(=O)N[C@@H](Cc1ccccc1)C(=O)NCC(N)=O)[C@@H](C)O)Cc1c[nH]c2ccccc12`: the half-inhibitory concentration (IC50) was > 1000 nM.

Values taken from ChEMBL document CHEMBL4417631, “Oral peptide inhibitors of interleukin-23 receptor and their use to treat inflammatory bowel diseases” (2017).
